{"source": "patent US8906684B2", "about": "“Three dimensional cell patterned biopolymer scaffolds and methods of making the same” (The Regents of the University of California, priority 2002, dated 2014)", "tested_on": "HepG2 cells", "assay_type": "cell-based", "conditions": "HepG2, amounts used for photocrosslinking", "description": "Cell culture and viability assays in the presence of photopolymerizing agents. HepG2 cells (American Type Culture Collection, Manassas, Va.) were cultured in 175 cm^2 flasks (Fisher, Springfield, N.J.) and were passaged preconfluency no more than 13 times. The cells were maintained in minimal essential medium (MEM; Gibco, Grand Island, N.Y.) supplemented with 5% fetal bovine serum, 100 ug/mL penicillin, and 100 ug/mL streptomycin and incubated at 5% CO2 and 37° C. The cells to be incorporated into hydrogels were added to the prepolymer solution containing initiator and were mixed gently prior to UV exposure.\nIn order to explore the effects of photoinitiator and UV exposure on cell death, individual components were tested in HepG2 cultures. 3.0×10^5 cells were seeded in six-well culture dishes and allowed to proliferate until near confluency. A solution of 300 mg/mL of 2,2-dimethyl-2-phenyl-acetophenone (Aldrich) in 1-vinyl-2-pyrrolidinone (Sigma) was added to MEM in concentrations of 0, 3, 5, and 10 ul/ml. […] Cell viability was measured by an Mi viability assay, which forms a purple precipitate by cleavage of the tetrazolium ring by mitochondrial dehydrogenase enzymes. […] The absorbance was measured at 570 nm with a SpectraMax Plus spectrophotometer (Molecular Devices, Sunnyvale, Calif.). […]"}
{"smiles": "C=CN1CCCC1=O", "note": "[1-vinyl-2-pyrrolidinone]", "values": [{"measurement": "toxicity to cells of initiator solvent alone", "value": "not found to be toxic"}]}
